Assay results from patent publication US9738634B2, “Heterocyclic amide compound and herbicide” (SYNGENTA PARTICIPATIONS AG, priority 2013, dated 2017).

Tests used:
Assay type in all cases: in vivo
crabgrass = assay: Test Example 3: weedkilling efficacy through soil treatment; D: crabgrass; conditions: soil treatment
In short: (§1)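 Crop and weed responses were judged three weeks after a uniform surface spray of the water-diluted emulsion at the given g/ha rate. Seeds sat beneath about 1.5 cm of sterilized diluvial soil, and boxes stood in a greenhouse at 25 to 30° C.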

barnyard grass [1] = assay: Test Example 1: weedkilling efficacy, preemergent weed treatment in the submerged state; A: barnyard grass; conditions: treatment dosage 320 g/ha
In short: (§2)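 Alluvial soil in Wagner pots flooded to 4 cm; barnyard grass, bulrush and oval-leafed pondweed seeds sown, then 2.5-leaf rice seedlings transplanted. Same day, emulsified compound diluted in water to set g/ha dosages and applied to water surface; greenhouse 25–30 °C, effect scored by criteria after 3 weeks.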

oval-leafed pondweed [2] = assay: Test Example 2: weedkilling efficacy, growth period weed treatment in the submerged state; C: oval-leafed pondweed; conditions: treatment dosage 320 g/ha
In short: (§3)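 First, alluvial soil in pots is flooded to 4 cm and mixed seed is sown. Next, plants grow in a greenhouse at 25 to 30° C until the 1-2 leaf stage. Then diluted emulsion is applied onto the water surface at the given g/ha rate, and injury is assessed after 3 weeks.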

black-grass = assay: Test Example 3: weedkilling efficacy through soil treatment; H: black-grass; conditions: soil treatment
In short: as §1

chickweed = assay: Test Example 3: weedkilling efficacy through soil treatment; N: chickweed; conditions: soil treatment
In short: as §1

corn = assay: Test Example 3: soil treatment, effect on crop; c: corn; conditions: soil treatment
In short: as §1

directly sown rice = assay: Test Example 3: soil treatment, effect on crop; b: directly sown rice; conditions: soil treatment
In short: as §1

green foxtail = assay: Test Example 3: weedkilling efficacy through soil treatment; E: green foxtail; conditions: soil treatment
In short: as §1

redroot pigweed = assay: Test Example 3: weedkilling efficacy through soil treatment; L: redroot pigweed; conditions: soil treatment
In short: as §1

fig-leafed goosefoot = assay: Test Example 3: weedkilling efficacy through soil treatment; M: fig-leafed goosefoot; conditions: soil treatment
In short: as §1

Italian ryegrass = assay: Test Example 3: weedkilling efficacy through soil treatment; I: Italian ryegrass; conditions: soil treatment
In short: as §1

barnyard grass [3] = assay: Test Example 3: weedkilling efficacy through soil treatment; F: barnyard grass; conditions: soil treatment
In short: as §1

bulrush [4] = assay: Test Example 1: weedkilling efficacy, preemergent weed treatment in the submerged state; B: bulrush; conditions: treatment dosage 320 g/ha
In short: as §2

wild oat = assay: Test Example 3: weedkilling efficacy through soil treatment; G: wild oat; conditions: soil treatment
In short: as §1

oval-leafed pondweed [5] = assay: Test Example 1: weedkilling efficacy, preemergent weed treatment in the submerged state; C: oval-leafed pondweed; conditions: treatment dosage 320 g/ha
In short: as §2

catchweed = assay: Test Example 3: weedkilling efficacy through soil treatment; O: catchweed; conditions: soil treatment
In short: as §1

barnyard grass [6] = assay: Test Example 2: weedkilling efficacy, growth period weed treatment in the submerged state; A: barnyard grass; conditions: treatment dosage 320 g/ha
In short: as §3

Indian mallow = assay: Test Example 3: weedkilling efficacy through soil treatment; K: Indian mallow; conditions: soil treatment
In short: as §1

bulrush [7] = assay: Test Example 2: weedkilling efficacy, growth period weed treatment in the submerged state; B: bulrush; conditions: treatment dosage 320 g/ha
In short: as §3

common wind-grass = assay: Test Example 3: weedkilling efficacy through soil treatment; J: common wind-grass; conditions: soil treatment
In short: as §1

rapeseed = assay: Test Example 3: soil treatment, effect on crop; g: rapeseed; conditions: soil treatment
In short: as §1

wheat = assay: Test Example 3: soil treatment, effect on crop; e: wheat; conditions: soil treatment
In short: as §1

birds-eye speedwell = assay: Test Example 3: weedkilling efficacy through soil treatment; p: birds-eye speedwell; conditions: soil treatment
In short: as §1

soybean = assay: Test Example 3: soil treatment, effect on crop; d: soybean; conditions: soil treatment
In short: as §1

transplanted rice = assay: Test Example 1: preemergent weed treatment in the submerged state, effect on crop; a: transplanted rice; conditions: treatment dosage 320 g/ha
In short: as §2

beet = assay: Test Example 3: soil treatment, effect on crop; f: beet; conditions: soil treatment
In short: as §1

Compound	D: crabgrass, weedkilling efficacy grade (crabgrass; treatment dosage 320 g/ha)	A: barnyard grass, weed kill grade (barnyard grass [1])	C (oval-leafed pondweed) weedkilling efficacy grade (oval-leafed pondweed [2])	H: black-grass, weedkilling efficacy grade (black-grass; treatment dosage 320 g/ha)	N: chickweed, weedkilling efficacy grade (chickweed; treatment dosage 320 g/ha)	c: corn, effect on crop grade (corn; treatment dosage 320 g/ha)	b: directly sown rice, effect on crop grade (directly sown rice; treatment dosage 320 g/ha)	E: green foxtail, weedkilling efficacy grade (green foxtail; treatment dosage 320 g/ha)	L: redroot pigweed, weedkilling efficacy grade (redroot pigweed; treatment dosage 320 g/ha)	M: fig-leafed goosefoot, weedkilling efficacy grade (fig-leafed goosefoot; treatment dosage 320 g/ha)	I: Italian ryegrass, weedkilling efficacy grade (Italian ryegrass; treatment dosage 320 g/ha)	F: barnyard grass, weedkilling efficacy grade (barnyard grass [3]; treatment dosage 320 g/ha)	B: bulrush, weed kill grade (bulrush [4])	G: wild oat, weedkilling efficacy grade (wild oat; treatment dosage 320 g/ha)	C: oval-leafed pondweed, weed kill grade (oval-leafed pondweed [5])	O: catchweed, weedkilling efficacy grade (catchweed; treatment dosage 320 g/ha)	A (barnyard grass) weedkilling efficacy grade (barnyard grass [6])	K: Indian mallow, weedkilling efficacy grade (Indian mallow; treatment dosage 320 g/ha)	B (bulrush) weedkilling efficacy grade (bulrush [7])	J: common wind-grass, weedkilling efficacy grade (common wind-grass; treatment dosage 320 g/ha)	further results
CC(C)(C(=O)Nc1ccn(C(F)F)n1)N1COCN(c2ccccc2)C1=O [A-1-04]	3 (weed kill ratio 40% or more, less than 70%)	5 (weed kill ratio 90% or more, (practically complete withering))	4 (weed kill ratio 70% or more, less than 90%)	4 (weed kill ratio 70% or more, less than 90%)	4 (weed kill ratio 70% or more, less than 90%)	0 (weed kill ratio 5% or less (practically no effect))	0 (weed kill ratio 5% or less (practically no effect))	3 (weed kill ratio 40% or more, less than 70%)	0 (weed kill ratio 5% or less (practically no effect))	3 (weed kill ratio 40% or more, less than 70%)	5 (weed kill ratio 90% or more, (practically complete withering))	2 (weed kill ratio 20% or more, less than 40%)	5 (weed kill ratio 90% or more, (practically complete withering))	2 (weed kill ratio 20% or more, less than 40%)	4 (weed kill ratio 70% or more, less than 90%)	2 (weed kill ratio 20% or more, less than 40%)	3 (weed kill ratio 40% or more, less than 70%)	0 (weed kill ratio 5% or less (practically no effect))	4 (weed kill ratio 70% or more, less than 90%)	5 (weed kill ratio 90% or more, (practically complete withering))	g: rapeseed, effect on crop grade (rapeseed; treatment dosage 320 g/ha): 4 (weed kill ratio 70% or more, less than 90%); e: wheat, effect on crop grade (wheat; treatment dosage 320 g/ha): 0 (weed kill ratio 5% or less (practically no effect)); P: birds-eye speedwell, weedkilling efficacy grade (birds-eye speedwell; treatment dosage 320 g/ha): 3 (weed kill ratio 40% or more, less than 70%); d: soybean, effect on crop grade (soybean; treatment dosage 320 g/ha): 2 (weed kill ratio 20% or more, less than 40%); a: transplanted rice, effect on crop grade (transplanted rice): 0 (weed kill ratio 5% or less (practically no effect)); f: beet, effect on crop grade (beet; treatment dosage 320 g/ha): 3 (weed kill ratio 40% or more, less than 70%)
CC(C)(C(=O)Nc1cc(Br)cc(F)n1)N1COCN(c2ccccc2)C1=O [A-2-19]	5 (weed kill ratio 90% or more, (practically complete withering))	5 (weed kill ratio 90% or more, (practically complete withering))	5 (weed kill ratio 90% or more, (practically complete withering))	5 (weed kill ratio 90% or more, (practically complete withering))	5 (weed kill ratio 90% or more, (practically complete withering))	2 (weed kill ratio 20% or more, less than 40%)	0 (weed kill ratio 5% or less (practically no effect))	5 (weed kill ratio 90% or more, (practically complete withering))	0 (weed kill ratio 5% or less (practically no effect))	4 (weed kill ratio 70% or more, less than 90%)	5 (weed kill ratio 90% or more, (practically complete withering))	5 (weed kill ratio 90% or more, (practically complete withering))	5 (weed kill ratio 90% or more, (practically complete withering))	5 (weed kill ratio 90% or more, (practically complete withering))	5 (weed kill ratio 90% or more, (practically complete withering))	4 (weed kill ratio 70% or more, less than 90%)	5 (weed kill ratio 90% or more, (practically complete withering))	0 (weed kill ratio 5% or less (practically no effect))	5 (weed kill ratio 90% or more, (practically complete withering))	5 (weed kill ratio 90% or more, (practically complete withering))	g: rapeseed, effect on crop grade (rapeseed; treatment dosage 320 g/ha): 5 (weed kill ratio 90% or more, (practically complete withering)); e: wheat, effect on crop grade (wheat; treatment dosage 320 g/ha): 2 (weed kill ratio 20% or more, less than 40%); P: birds-eye speedwell, weedkilling efficacy grade (birds-eye speedwell; treatment dosage 320 g/ha): 4 (weed kill ratio 70% or more, less than 90%); a: transplanted rice, effect on crop grade (transplanted rice): 3 (weed kill ratio 40% or more, less than 70%); f: beet, effect on crop grade (beet; treatment dosage 320 g/ha): 4 (weed kill ratio 70% or more, less than 90%)
CC(C)(C(=O)Nc1cc(Cl)cc(C2CC2)n1)N1COCN(c2ccccc2)C1=O [A-2-29]	–	–	–	–	–	–	–	–	–	–	–	–	–	–	–	–	–	–	–	–	D: crabgrass, weedkilling efficacy grade (crabgrass; treatment dosage 230 g/ha): 5 (weed kill ratio 90% or more, (practically complete withering)); H: black-grass, weedkilling efficacy grade (black-grass; treatment dosage 230 g/ha): 5 (weed kill ratio 90% or more, (practically complete withering)); N: chickweed, weedkilling efficacy grade (chickweed; treatment dosage 230 g/ha): 4 (weed kill ratio 70% or more, less than 90%); c: corn, effect on crop grade (corn; treatment dosage 230 g/ha): 1 (weed kill ratio 5% or more, less than 20%); b: directly sown rice, effect on crop grade (directly sown rice; treatment dosage 230 g/ha): 1 (weed kill ratio 5% or more, less than 20%); E: green foxtail, weedkilling efficacy grade (green foxtail; treatment dosage 230 g/ha): 5 (weed kill ratio 90% or more, (practically complete withering)); L: redroot pigweed, weedkilling efficacy grade (redroot pigweed; treatment dosage 230 g/ha): 2 (weed kill ratio 20% or more, less than 40%); M: fig-leafed goosefoot, weedkilling efficacy grade (fig-leafed goosefoot; treatment dosage 230 g/ha): 3 (weed kill ratio 40% or more, less than 70%); I: Italian ryegrass, weedkilling efficacy grade (Italian ryegrass; treatment dosage 230 g/ha): 5 (weed kill ratio 90% or more, (practically complete withering)); F: barnyard grass, weedkilling efficacy grade (barnyard grass [3]; treatment dosage 230 g/ha): 5 (weed kill ratio 90% or more, (practically complete withering)); G: wild oat, weedkilling efficacy grade (wild oat; treatment dosage 230 g/ha): 3 (weed kill ratio 40% or more, less than 70%); O: catchweed, weedkilling efficacy grade (catchweed; treatment dosage 230 g/ha): 3 (weed kill ratio 40% or more, less than 70%); K: Indian mallow, weedkilling efficacy grade (Indian mallow; treatment dosage 230 g/ha): 3 (weed kill ratio 40% or more, less than 70%); J: common wind-grass, weedkilling efficacy grade (common wind-grass; treatment dosage 230 g/ha): 5 (weed kill ratio 90% or more, (practically complete withering)); g: rapeseed, effect on crop grade (rapeseed; treatment dosage 230 g/ha): 4 (weed kill ratio 70% or more, less than 90%); e: wheat, effect on crop grade (wheat; treatment dosage 230 g/ha): 0 (weed kill ratio 5% or less (practically no effect)); P: birds-eye speedwell, weedkilling efficacy grade (birds-eye speedwell; treatment dosage 230 g/ha): 5 (weed kill ratio 90% or more, (practically complete withering)); d: soybean, effect on crop grade (soybean; treatment dosage 230 g/ha): 0 (weed kill ratio 5% or less (practically no effect)); f: beet, effect on crop grade (beet; treatment dosage 230 g/ha): 3 (weed kill ratio 40% or more, less than 70%)
